The values that follow come from US9302991B2, “Arylamide derivatives as TTX-S blockers” (RaQualia Pharma Inc., priority 2010, dated 2016).

One test addresses T1, human Nav1.7 channels (Homo sapiens, UniProt Q15858).
T1 construct: expressed in transfected cells; host or cells: CHO
Kind of test: FRET assay, human Nav1.7 (EFS on FDSS). The test is classed as cell-based. As to conditions: CHO cells expressing human Nav1.7, read-out: IC50 against Nav1.7. In outline: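 CHO cells stably expressing the channel, loaded with CC2-DMPE (10 µM) then DiSBAC2(3) (15 µM) plus VABSC-1, in HEPES-buffered saline pH 7.4 at room temperature. Electrical field stimulation on FDSS; FRET ratio at 440 nm fitted for IC50.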

The next test deals with T2, human Nav1.3 channels (Homo sapiens, UniProt Q9NY46).
T2 construct: expressed in transfected cells; host or cells: HEK293
Nature of the test: FRET assay, human Nav1.3 (EFS on FDSS). The test is classed as cell-based. The following applies: HEK293 cells expressing human Nav1.3, read-out: IC50 against Nav1.3. The method, boiled down:
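HEK293 cells expressing the channel, loaded with 10 microM CC2-DMPE then 15 microM DiSBAC2(3) plus 0.555 mM VABSC-1 in pH 7.4 HEPES buffer at room temperature. Membrane potential changes evoked by electrical field stimulation after compound addition; IC50 from 440 nm-normalized FRET ratios.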

T2 sequence (Q9NY46 whole entry): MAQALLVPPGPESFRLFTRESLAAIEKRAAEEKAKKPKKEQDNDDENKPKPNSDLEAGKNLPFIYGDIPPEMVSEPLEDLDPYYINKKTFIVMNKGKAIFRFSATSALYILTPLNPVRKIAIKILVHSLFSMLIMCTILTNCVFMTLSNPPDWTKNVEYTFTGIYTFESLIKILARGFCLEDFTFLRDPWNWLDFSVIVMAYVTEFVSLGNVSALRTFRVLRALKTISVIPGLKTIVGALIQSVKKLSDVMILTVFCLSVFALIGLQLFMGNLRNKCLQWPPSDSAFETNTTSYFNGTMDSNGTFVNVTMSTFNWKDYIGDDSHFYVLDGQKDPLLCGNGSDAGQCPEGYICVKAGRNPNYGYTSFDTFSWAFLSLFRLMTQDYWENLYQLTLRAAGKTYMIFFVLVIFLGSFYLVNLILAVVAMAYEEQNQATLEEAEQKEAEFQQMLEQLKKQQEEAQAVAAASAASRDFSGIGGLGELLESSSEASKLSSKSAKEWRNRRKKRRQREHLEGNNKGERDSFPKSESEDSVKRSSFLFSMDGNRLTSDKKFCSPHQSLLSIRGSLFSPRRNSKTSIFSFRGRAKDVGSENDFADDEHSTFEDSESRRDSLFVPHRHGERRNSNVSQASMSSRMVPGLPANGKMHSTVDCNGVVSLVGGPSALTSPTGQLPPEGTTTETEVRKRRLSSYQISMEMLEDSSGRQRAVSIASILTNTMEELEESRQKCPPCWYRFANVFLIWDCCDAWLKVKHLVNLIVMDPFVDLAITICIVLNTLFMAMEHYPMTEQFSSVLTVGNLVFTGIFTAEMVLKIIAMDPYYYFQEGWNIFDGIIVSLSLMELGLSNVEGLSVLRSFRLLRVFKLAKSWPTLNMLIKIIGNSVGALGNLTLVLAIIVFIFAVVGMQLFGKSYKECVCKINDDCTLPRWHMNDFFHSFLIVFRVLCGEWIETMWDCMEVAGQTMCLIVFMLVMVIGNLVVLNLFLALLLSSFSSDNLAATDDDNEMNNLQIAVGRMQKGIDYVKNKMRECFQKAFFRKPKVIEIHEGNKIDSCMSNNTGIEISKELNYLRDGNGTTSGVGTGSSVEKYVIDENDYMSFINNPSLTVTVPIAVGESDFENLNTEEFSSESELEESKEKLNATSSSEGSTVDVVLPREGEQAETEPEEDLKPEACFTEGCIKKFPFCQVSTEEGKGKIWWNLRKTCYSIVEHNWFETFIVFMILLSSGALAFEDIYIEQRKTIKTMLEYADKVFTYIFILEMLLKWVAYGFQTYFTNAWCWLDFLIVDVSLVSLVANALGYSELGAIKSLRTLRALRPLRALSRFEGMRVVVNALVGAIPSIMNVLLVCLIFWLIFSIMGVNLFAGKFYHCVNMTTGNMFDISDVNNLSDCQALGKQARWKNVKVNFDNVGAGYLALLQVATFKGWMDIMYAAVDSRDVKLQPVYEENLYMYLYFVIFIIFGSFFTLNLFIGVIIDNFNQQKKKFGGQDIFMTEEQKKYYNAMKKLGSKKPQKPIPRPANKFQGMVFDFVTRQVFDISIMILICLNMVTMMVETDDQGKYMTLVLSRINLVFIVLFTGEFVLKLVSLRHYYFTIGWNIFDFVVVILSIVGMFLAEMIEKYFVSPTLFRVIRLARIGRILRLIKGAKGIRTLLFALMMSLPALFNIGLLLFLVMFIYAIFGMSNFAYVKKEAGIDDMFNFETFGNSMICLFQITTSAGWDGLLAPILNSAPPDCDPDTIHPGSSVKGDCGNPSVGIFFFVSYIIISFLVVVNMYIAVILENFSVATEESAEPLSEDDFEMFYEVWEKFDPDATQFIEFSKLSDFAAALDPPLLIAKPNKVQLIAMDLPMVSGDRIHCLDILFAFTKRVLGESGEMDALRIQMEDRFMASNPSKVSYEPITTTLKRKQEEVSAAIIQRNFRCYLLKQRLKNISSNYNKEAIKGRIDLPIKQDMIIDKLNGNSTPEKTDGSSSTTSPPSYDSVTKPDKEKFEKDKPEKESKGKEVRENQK
T1 sequence (Q15858 whole entry): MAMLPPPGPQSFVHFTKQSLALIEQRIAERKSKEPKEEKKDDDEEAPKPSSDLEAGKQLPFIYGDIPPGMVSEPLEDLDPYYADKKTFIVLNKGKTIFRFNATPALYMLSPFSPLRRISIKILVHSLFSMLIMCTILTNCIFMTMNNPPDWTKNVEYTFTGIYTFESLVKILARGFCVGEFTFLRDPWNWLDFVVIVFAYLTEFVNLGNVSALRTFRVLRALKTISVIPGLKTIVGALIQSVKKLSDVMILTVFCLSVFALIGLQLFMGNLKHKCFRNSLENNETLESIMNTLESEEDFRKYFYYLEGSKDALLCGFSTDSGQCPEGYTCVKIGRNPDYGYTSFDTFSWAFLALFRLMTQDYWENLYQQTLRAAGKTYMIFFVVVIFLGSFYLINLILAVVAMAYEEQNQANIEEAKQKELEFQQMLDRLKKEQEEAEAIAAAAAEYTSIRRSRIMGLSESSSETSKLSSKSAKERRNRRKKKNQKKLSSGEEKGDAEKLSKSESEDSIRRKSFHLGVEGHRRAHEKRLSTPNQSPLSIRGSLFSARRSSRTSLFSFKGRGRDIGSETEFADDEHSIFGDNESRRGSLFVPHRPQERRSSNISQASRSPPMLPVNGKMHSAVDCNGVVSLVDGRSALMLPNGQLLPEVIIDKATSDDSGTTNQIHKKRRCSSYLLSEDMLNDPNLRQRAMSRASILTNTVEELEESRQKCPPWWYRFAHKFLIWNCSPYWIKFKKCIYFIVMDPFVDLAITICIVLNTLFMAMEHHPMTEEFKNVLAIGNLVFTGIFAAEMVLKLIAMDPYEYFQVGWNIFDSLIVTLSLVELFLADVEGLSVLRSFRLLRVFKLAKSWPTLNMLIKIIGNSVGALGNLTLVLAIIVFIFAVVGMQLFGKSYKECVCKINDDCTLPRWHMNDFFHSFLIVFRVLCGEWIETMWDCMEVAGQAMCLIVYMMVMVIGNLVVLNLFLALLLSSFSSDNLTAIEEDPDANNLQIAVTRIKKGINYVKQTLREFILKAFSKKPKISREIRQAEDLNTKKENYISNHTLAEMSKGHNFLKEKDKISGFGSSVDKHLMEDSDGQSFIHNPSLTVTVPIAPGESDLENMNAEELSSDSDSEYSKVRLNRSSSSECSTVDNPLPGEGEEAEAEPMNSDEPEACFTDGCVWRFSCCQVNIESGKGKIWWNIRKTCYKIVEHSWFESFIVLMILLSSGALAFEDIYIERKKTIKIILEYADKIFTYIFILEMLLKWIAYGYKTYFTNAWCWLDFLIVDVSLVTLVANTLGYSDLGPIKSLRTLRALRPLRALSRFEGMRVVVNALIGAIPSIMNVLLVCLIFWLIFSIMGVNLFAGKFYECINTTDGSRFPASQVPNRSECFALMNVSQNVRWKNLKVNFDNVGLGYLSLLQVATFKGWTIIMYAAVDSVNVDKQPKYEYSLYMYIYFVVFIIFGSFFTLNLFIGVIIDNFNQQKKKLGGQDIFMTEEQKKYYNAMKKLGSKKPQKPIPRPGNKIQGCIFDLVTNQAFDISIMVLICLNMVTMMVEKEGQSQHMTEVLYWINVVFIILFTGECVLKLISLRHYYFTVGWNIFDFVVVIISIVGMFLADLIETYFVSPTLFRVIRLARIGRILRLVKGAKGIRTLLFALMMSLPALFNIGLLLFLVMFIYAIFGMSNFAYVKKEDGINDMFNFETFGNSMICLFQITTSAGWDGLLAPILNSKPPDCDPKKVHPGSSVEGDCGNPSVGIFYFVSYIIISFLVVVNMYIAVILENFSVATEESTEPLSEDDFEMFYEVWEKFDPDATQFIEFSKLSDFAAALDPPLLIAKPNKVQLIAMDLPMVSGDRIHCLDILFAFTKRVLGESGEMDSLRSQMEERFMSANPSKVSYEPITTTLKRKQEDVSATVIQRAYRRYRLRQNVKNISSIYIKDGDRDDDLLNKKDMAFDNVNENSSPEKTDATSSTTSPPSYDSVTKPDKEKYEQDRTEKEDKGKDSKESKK

In general, IC50 refers to the concentration at which inhibition is half-maximal. For the compound `CCC(=O)Nc1cc(C(=O)NC(C)c2ccc(OCC(F)(F)F)cc2)cc(C)n1` (single isomer, unassigned) [Example 136, 2-methyl-6-propionamido-N-(1-(4-(2,2,2-trifluoroethoxy)phenyl)ethyl)isonicotinamide], the IC50 at human Nav1.7 channels and at human Nav1.3 channels was below 1000 nM throughout.
As for `CCC(=O)Nc1cc(C(=O)NC(C)c2cccc(OCC(F)(F)F)n2)cc(C)n1` (single isomer, unassigned) [Example 139, 2-methyl-6-propionamido-N-(1-(6-(2,2,2-trifluoroethoxy)pyridin-2-yl)ethyl)isonicotinamide], the half-maximal inhibitory concentration (IC50) at human Nav1.7 channels and on human Nav1.3 channels was below 1000 nM each time.
Consider `CCC(=O)Nc1nccc(C(=O)NC(C)c2cnc(OCC(F)(F)F)c(C)c2)n1` (single isomer, unassigned) [Example 223, N-(1-(5-methyl-6-(2,2,2-trifluoroethoxy)pyridin-3-yl)ethyl)-2-propionamidopyrimidine-4-carboxamide], for which the IC50 on human Nav1.7 channels and on human Nav1.3 channels was below 1000 nM each time.
As for `Cc1cc(C(C)NC(=O)c2ccnc(NC(=O)C3CC3)n2)cnc1OCC(F)(F)F` (single isomer, unassigned) [Example 224, 2-(cyclopropanecarboxamido)-N-(1-(5-methyl-6-(2,2,2-trifluoroethoxy)pyridin-3-yl)ethyl)pyrimidine-4-carboxamide], the IC50 at human Nav1.7 channels and on human Nav1.3 channels was below 1000 nM each time.
`Cc1cc(C(C)NC(=O)c2ccnc(NC(=O)C(C)C)n2)cnc1OCC(F)(F)F` (single isomer, unassigned) [Example 225, 2-isobutyramido-N-(1-(5-methyl-6-(2,2,2-trifluoroethoxy)pyridin-3-yl)ethyl)pyrimidine-4-carboxamide]: the IC50 on human Nav1.7 channels and on human Nav1.3 channels was below 1000 nM in each case.
In the case of `Cc1cc(C(C)NC(=O)c2ccnc(NC(=O)C3CCC3)n2)cnc1OCC(F)(F)F` (single isomer, unassigned) [Example 226, 2-(cyclobutanecarboxamido)-N-(1-(5-methyl-6-(2,2,2-trifluoroethoxy)pyridin-3-yl)ethyl)pyrimidine-4-carboxamide], the IC50 at human Nav1.7 channels and at human Nav1.3 channels was below 1000 nM each time.
For the compound `CCC(=O)Nc1nc(C)cc(C(=O)NC(C)c2cnc(OCC(F)(F)F)c(C)c2)n1` (single isomer, unassigned) [Example 227, 6-methyl-N-(1-(5-methyl-6-(2,2,2-trifluoroethoxy)pyridin-3-yl)ethyl)-2-propionamidopyrimidine-4-carboxamide], the IC50 at human Nav1.7 channels and on human Nav1.3 channels was below 1000 nM each time.
With `Cc1cc(C(=O)NC(C)c2cnc(OCC(F)(F)F)c(C)c2)nc(NC(=O)C2CC2)n1` (single isomer, unassigned) [Example 228, 2-(cyclopropanecarboxamido)-6-methyl-N-(1-(5-methyl-6-(2,2,2-trifluoroethoxy)pyridin-3-yl)ethyl)pyrimidine-4-carboxamide], the IC50 at human Nav1.7 channels and on human Nav1.3 channels was below 1000 nM in each case.
For `Cc1cc(C(=O)NC(C)c2cnc(OCC(F)(F)F)c(C)c2)nc(NC(=O)C(C)C)n1` (single isomer, unassigned) [Example 229, 2-isobutyramido-6-methyl-N-(1-(5-methyl-6-(2,2,2-trifluoroethoxy)pyridin-3-yl)ethyl)pyrimidine-4-carboxamide], the IC50 on human Nav1.7 channels and at human Nav1.3 channels was below 1000 nM throughout.
As for `CC(=O)Nc1nc(C)cc(C(=O)NC(C)c2cnc(OCC(F)(F)F)c(C)c2)n1` (single isomer, unassigned) [Example 235, 2-acetamido-6-methyl-N-(1-(5-methyl-6-(2,2,2-trifluoroethoxy)pyridin-3-yl)ethyl)pyrimidine-4-carboxamide], the IC50 at human Nav1.7 channels and at human Nav1.3 channels was below 1000 nM in each case.
In the case of `Cc1cc(C(=O)NC(C)c2cnc(OCC(F)(F)F)c(C)c2)nc(Nc2ncco2)n1` (single isomer, unassigned) [Example 456, 6-methyl-N-(1-(5-methyl-6-(2,2,2-trifluoroethoxy)pyridin-3-yl)ethyl)-2-(oxazol-2-ylamino)pyrimidine-4-carboxamide], the IC50 at human Nav1.7 channels and at human Nav1.3 channels was below 1000 nM in each case.
Turning to `Cc1cc(C(=O)NC(C)c2cccc(OC(F)(F)F)c2)cc(NC(=O)C(C)C)n1` (single isomer, unassigned) [Example 499, 2-isobutyramido-6-methyl-N-(1-(3-(trifluoromethoxy)phenyl)ethyl)isonicotinamide], the IC50 at human Nav1.7 channels and on human Nav1.3 channels was below 1000 nM in each case.
`Cc1cc(C(=O)NC(C)c2cnc(OCC(F)(F)F)c(C)c2)cc(NC(=O)C(C)C)n1` (single isomer, unassigned) [Example 520, 2-isobutyramido-6-methyl-N-(1-(5-methyl-6-(2,2,2-trifluoroethoxy)pyridin-3-yl)ethyl)isonicotinamide]: the IC50 at human Nav1.7 channels and on human Nav1.3 channels was below 1000 nM throughout.
`CCC(=O)Nc1cc(C(=O)NC(C)c2cnc(OCC(F)F)c(C)c2)cc(C)n1` (single isomer, unassigned) [Example 554, N-(1-(6-(2,2-difluoroethoxy)-5-methylpyridin-3-yl)ethyl)-2-methyl-6-propionamidoisonicotinamide]: the IC50 at human Nav1.7 channels and on human Nav1.3 channels was below 1000 nM each time.
Regarding `Cc1cc(C(C)NC(=O)c2ccnc(NC(=O)C(C)C)c2)cnc1OCC(F)F` (single isomer, unassigned) [Example 555, N-(1-(6-(2,2-difluoroethoxy)-5-methylpyridin-3-yl)ethyl)-2-isobutyramidoisonicotinamide], the IC50 at human Nav1.7 channels and at human Nav1.3 channels was below 1000 nM throughout.
In the case of `Cc1cc(C(=O)NC(C)c2cnc(OCC(F)F)c(C)c2)cc(NC(=O)C(C)C)n1` (single isomer, unassigned) [Example 557, N-(1-(6-(2,2-difluoroethoxy)-5-methylpyridin-3-yl)ethyl)-2-isobutyramido-6-methylisonicotinamide], the 50% inhibitory concentration (IC50) on human Nav1.7 channels and at human Nav1.3 channels was below 1000 nM in each case.
For `Cc1cc(C(C)NC(=O)c2ccnc(NC(=O)C3CC3)n2)cnc1OCC(F)F` (single isomer, unassigned) [Example 558, 2-(cyclopropanecarboxamido)-N-(1-(6-(2,2-difluoroethoxy)-5-methylpyridin-3-yl)ethyl)pyrimidine-4-carboxamide], the IC50 at human Nav1.7 channels and on human Nav1.3 channels was below 1000 nM in each case.
In the case of `CCC(=O)Nc1cc(C(=O)NC(C)c2ccc(OCC(F)(F)F)c(Cl)c2)cc(C)n1` (single isomer, unassigned) [Example 677, N-(1-(3-chloro-4-(2,2,2-trifluoroethoxy)phenyl)ethyl)-2-methyl-6-propionamidoisonicotinamide], the IC50 at human Nav1.7 channels and on human Nav1.3 channels was below 1000 nM in each case.
As for `CC(NC(=O)c1ccnc(NC(=O)C2CC2)n1)c1ccc(OCC(F)(F)F)c(Cl)c1` (single isomer, unassigned) [Example 680, N-(1-(3-chloro-4-(2,2,2-trifluoroethoxy)phenyl)ethyl)-2-(cyclopropanecarboxamido)pyrimidine-4-carboxamide], the IC50 on human Nav1.7 channels and at human Nav1.3 channels was below 1000 nM throughout.
As for `Cc1cc(C(=O)NC(C)c2cnc(OCC(F)(F)F)c(C)c2)cc(NC(=O)C2CC2)n1` (single isomer, unassigned) [Example 823, 2-(cyclopropanecarboxamido)-6-methyl-N-(1-(5-methyl-6-(2,2,2-trifluoroethoxy)pyridin-3-yl)ethyl)isonicotinamide], the IC50 on human Nav1.7 channels and on human Nav1.3 channels was below 1000 nM each time.
For the compound `Cc1cc(C(=O)NC(C)c2cnc(OCC(F)(F)F)c(Cl)c2)cc(NC(=O)C2CC2)n1` (single isomer, unassigned) [Example 832, N-(1-(5-chloro-6-(2,2,2-trifluoroethoxy)pyridin-3-yl)ethyl)-2-(cyclopropanecarboxamido)-6-methylisonicotinamide], the IC50 at human Nav1.7 channels and at human Nav1.3 channels was below 1000 nM each time.
With `Cc1cc(C(C)NC(=O)c2ccnc(NC(=O)C(C)C)c2)cnc1OCC(F)(F)C(F)F` (single isomer, unassigned) [Example 904, 2-isobutyramido-N-(1-(5-methyl-6-(2,2,3,3-tetrafluoropropoxy)pyridin-3-yl)ethyl)isonicotinamide], the IC50 at human Nav1.7 channels and on human Nav1.3 channels was below 1000 nM throughout.
In the case of `Cc1cc(C(=O)NC(C)c2cnc(OCC(F)(F)C(F)F)c(C)c2)cc(NC(=O)C(C)C)n1` (single isomer, unassigned) [Example 905, 2-isobutyramido-6-methyl-N-(1-(5-methyl-6-(2,2,3,3-tetrafluoropropoxy)pyridin-3-yl)ethyl)isonicotinamide], the IC50 on human Nav1.7 channels and at human Nav1.3 channels was below 1000 nM each time.
Consider `Cc1cc(C(C)NC(=O)c2ccnc(NC(=O)C3CC3)n2)cnc1OCC(F)(F)C(F)F` (single isomer, unassigned) [Example 906, 2-(cyclopropanecarboxamido)-N-(1-(5-methyl-6-(2,2,3,3-tetrafluoropropoxy)pyridin-3-yl)ethyl)pyrimidine-4-carboxamide], for which the concentration for half-maximal inhibition (IC50) at human Nav1.7 channels and on human Nav1.3 channels was below 1000 nM throughout.
As for `CCC(=O)Nc1cc(C(=O)NC(C)c2cnc(OCC(F)(F)C(F)F)c(C)c2)ccn1` (single isomer, unassigned) [Example 925, N-(1-(5-methyl-6-(2,2,3,3-tetrafluoropropoxy)pyridin-3-yl)ethyl)-2-propionamidoisonicotinamide], the IC50 at human Nav1.7 channels and on human Nav1.3 channels was below 1000 nM throughout.
